The first assay has as its system hyperalgesic foot withdrawal (rat carrageenan). The assay can be described thus: Rat Carrageenan-induced Analgesia Test. Type of assay: in vivo, Male Sprague-Dawley rats. The settings on record: po, 3 h, read-out: ANALGESIA % Inhibition.
Protocol: Male Sprague-Dawley rats were treated as previously described for the Carrageenan Foot Pad Edema test. […] After an initial twenty minute period, thermal stimulation was begun on either the injected foot or on the contralateral uninjected foot. A photoelectric cell turned off the lamp and timer when light was interrupted by paw withdrawal. The time until the rat withdraws its foot was then measured. The withdrawal latency in seconds was determined for the control and drug-treated groups, and percent inhibition of the hyperalgesic foot withdrawal determined.
Consider `CSc1ccc(C2=C(c3ccc(S(C)(=O)=O)cc3)CCC2)cc1` [Example 11, 1-[2-(4-Methylthiophenyl)cyclopenten-1-yl]-4-(methylsulfonyl)benzene], for which the inhibition in vivo at 20 mg/kg turned out to be 39%. On the same count and under the same terms, next, `CS(=O)(=O)c1ccc(C2=C(c3ccc(Cl)cc3)CCC2)cc1` [Example 3, 1-[2-(4-Chlorophenyl)cyclopenten-1-yl]-4-(methylsulfonyl)benzene]: 41%. As for `NS(=O)(=O)c1ccc(C2=C(c3ccc(Cl)c(Cl)c3)CCC2)cc1` [Example 28, 4-[2-(3,4-Dichlorophenyl)cyclopenten-1-yl]benzenesulfonamide], the inhibition in vivo at 30 mg/kg stood at 26%. On to `CS(=O)(=O)c1ccc(C2=C(c3ccc(C(F)(F)F)cc3)CCC2)cc1` [Example 6, 1-[2-(4-Trifluoromethylphenyl)cyclopenten-1-yl]-4-(methylsulfonyl)benzene], for which the inhibition in vivo at 20 mg/kg stood at 29%. `NS(=O)(=O)c1ccc(C2=C(c3ccc(F)c(Cl)c3)CCC2)cc1` [Example 34, 4-[2-(3-Chloro-4-fluorophenyl)cyclopenten-1-yl]benzenesulfonamide]: the inhibition in vivo at 30 mg/kg was found to be 46%.

Regarding `CS(=O)(=O)c1ccc(C2=C(c3ccc(F)cc3)CCC2)cc1` [Example 1, 1-[2-(4-Fluorophenyl)cyclopenten-1-yl]-4-(methylsulfonyl)benzene], the inhibition in vivo at 20 mg/kg was found to be 66%. As for `COc1ccc(C2=C(c3ccc(S(C)(=O)=O)cc3)CCC2)cc1` [Example 23, 1-[2-(4-Methoxyphenyl)cyclopenten-1-yl]-4-(methylsulfonyl)benzene], the inhibition in vivo at 30 mg/kg was found to be 15%. The same measure, in the same setting: with `NS(=O)(=O)c1ccc(C2=C(c3ccc(F)cc3)CCC2)cc1` [Example 20, 4-[2-(4-Fluorophenyl)cyclopenten-1-yl]benzenesulfonamide] the figure was 44%; with `COc1ccc(C2=C(c3ccc(S(N)(=O)=O)cc3)CCC2)cc1Cl` [Example 32, 4-[2-(3-Chloro-4-methoxyphenyl)cyclopenten-1-yl]benzenesulfonamide], 17%.

The assay is the same for the next values; noted with them: read-out: ANALGESIA % Inhibition, Assay performed at 30 mg/kg body weight (footnote 2), oral, 3 hours after carrageenan, read-out: […] % Inhibition.
Consider `CC1(C)CC(c2ccc(F)cc2)=C(c2ccc(S(N)(=O)=O)cc2)C1` [Example 13, 4-[2-(4-Fluorophenyl)-4,4-dimethylcyclopenten-1-yl]benzenesulfonamide], for which the inhibition in vivo at 30 mg/kg came out at 14%.

The target in a further assay is T1, HUMAN COX I (Homo sapiens, UniProt P23219).
T1 construct: A 2.0 kb fragment containing the coding region of either human or murine COX-I or human or murine COX-II; made in house; host or cells: SF9 insect cells (recombinant baculovirus, pVL1393); CHAPS-solubilized
T1 sequence (P23219 24-599): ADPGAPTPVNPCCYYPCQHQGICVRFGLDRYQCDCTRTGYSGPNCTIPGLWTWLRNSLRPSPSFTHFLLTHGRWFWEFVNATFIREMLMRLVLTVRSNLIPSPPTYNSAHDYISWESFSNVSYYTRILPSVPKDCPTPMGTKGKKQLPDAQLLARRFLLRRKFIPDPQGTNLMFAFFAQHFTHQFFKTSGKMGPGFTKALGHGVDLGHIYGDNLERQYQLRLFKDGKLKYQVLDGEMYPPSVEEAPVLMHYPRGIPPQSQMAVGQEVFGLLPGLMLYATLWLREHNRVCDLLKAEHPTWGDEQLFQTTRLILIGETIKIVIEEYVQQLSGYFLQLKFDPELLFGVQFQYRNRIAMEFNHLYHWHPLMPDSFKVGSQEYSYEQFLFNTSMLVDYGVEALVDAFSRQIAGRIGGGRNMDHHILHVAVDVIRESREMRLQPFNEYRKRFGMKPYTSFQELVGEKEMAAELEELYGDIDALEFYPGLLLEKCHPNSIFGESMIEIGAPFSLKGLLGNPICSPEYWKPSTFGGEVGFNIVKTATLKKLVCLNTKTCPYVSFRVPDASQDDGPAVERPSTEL
The assay is described as follows: COX I activity in vitro (PGE2 formed, ELISA, recombinant enzyme). Type of assay: biochemical. The settings on record: recombinant cox-i; read-out: HUMAN COX I ID50.
Take `CC1(C)CC(c2ccc(Cl)cc2)=C(c2ccc(S(C)(=O)=O)cc2)C1` [Example 14, 1-[2-(4-Chlorophenyl)-4,4-dimethylcyclopenten-1-yl]-4-(methylsulfonyl)benzene]: the IC50 stood at 1.6 µM. Same read-out and setting: next, `NS(=O)(=O)c1ccc(C2=C(c3ccc(Cl)cc3)CCC2)cc1` [Example 21, 4-[2-(4-Chlorophenyl)cyclopenten-1-yl]benzenesulfonamide]: 1.3 µM; `COc1ccc(C2=C(c3ccc(S(N)(=O)=O)cc3)CCC2)cc1F` [Example 30, 4-[2-(3-Fluoro-4-methoxyphenyl)cyclopenten-1-yl]benzenesulfonamide]: 8.1 µM.

As for `COc1ccc(C2=C(c3ccc(S(C)(=O)=O)cc3)CCC2)cc1` [Example 23, 1-[2-(4-Methoxyphenyl)cyclopenten-1-yl]-4-(methylsulfonyl)benzene], the IC50 was found to be 9.9 µM. Still for that read-out and setting: next, `NS(=O)(=O)c1ccc(C2=C(c3ccc(F)cc3)CCC2)cc1` [Example 20, 4-[2-(4-Fluorophenyl)cyclopenten-1-yl]benzenesulfonamide]: 4.2 µM; `CC1(C)CC(c2ccc(F)cc2)=C(c2ccc(S(C)(=O)=O)cc2)C1` [Example 12, 1-[2-(4-Fluorophenyl)-4,4-dimethylcyclopenten-1-yl]-4-(methylsulfonyl)benzene]: 18.3 µM.

The same assay, now with this note: recombinant human COX I, arachidonic acid 10 μM, 10-20 min pre-incubation; read-out: HUMAN COX I ID50.
Turning to `CC1(C)CC(c2ccc(F)cc2)=C(c2ccc(S(N)(=O)=O)cc2)C1` [Example 13, 4-[2-(4-Fluorophenyl)-4,4-dimethylcyclopenten-1-yl]benzenesulfonamide], the IC50 stood at 0.5 µM. On the same count and under the same terms, next, `NS(=O)(=O)c1ccc(C2=C(c3cccc(F)c3F)CCC2)cc1` [Example 26, 4-[2-(2,3-Difluorophenyl)cyclopenten-1-yl]benzenesulfonamide]: 3.6 µM. The same measure, in the same setting: with `CS(=O)(=O)c1ccc(C2=C(c3cccc(F)c3F)CCC2)cc1` [Example 25, 1-[2-(2,3-Difluorophenyl)cyclopenten-1-yl]-4-(methylsulfonyl)benzene] the figure was greater than 100 µM.

As for `CCC1(CC)CC(c2ccc(F)cc2)=C(c2ccc(S(N)(=O)=O)cc2)C1` [Example 19, 4-[2-(4-Fluorophenyl)-4,4-diethylcyclopenten-1-yl]benzenesulfonamide], the IC50 came out at 10 µM. Same read-out and setting: next, `NS(=O)(=O)c1ccc(C2=C(c3ccc(F)c(Cl)c3)CCC2)cc1` [Example 34, 4-[2-(3-Chloro-4-fluorophenyl)cyclopenten-1-yl]benzenesulfonamide]: 2.1 µM. With `Cc1ccc(C2=C(c3ccc(S(C)(=O)=O)cc3)CCC2)cn1` [Example 36], the IC50 was greater than 100 µM.

`O=S(=O)(CF)c1ccc(C2=C(c3ccc(F)cc3)CCC2)cc1` [Example 37, 1-[2-(4-Fluorophenyl)cyclopenten-1-yl]-4-(fluoromethylsulfonyl)benzene]: the IC50 is greater than 100 µM.

For the next assay, the target named is T2, HUMAN COX II (Homo sapiens, UniProt P35354).
T2 construct: A 2.0 kb fragment containing the coding region of either human or murine COX-I or human or murine COX-II; made in house; host or cells: SF9 insect cells (recombinant baculovirus, pVL1393); CHAPS-solubilized
T2 sequence (P35354 18-604): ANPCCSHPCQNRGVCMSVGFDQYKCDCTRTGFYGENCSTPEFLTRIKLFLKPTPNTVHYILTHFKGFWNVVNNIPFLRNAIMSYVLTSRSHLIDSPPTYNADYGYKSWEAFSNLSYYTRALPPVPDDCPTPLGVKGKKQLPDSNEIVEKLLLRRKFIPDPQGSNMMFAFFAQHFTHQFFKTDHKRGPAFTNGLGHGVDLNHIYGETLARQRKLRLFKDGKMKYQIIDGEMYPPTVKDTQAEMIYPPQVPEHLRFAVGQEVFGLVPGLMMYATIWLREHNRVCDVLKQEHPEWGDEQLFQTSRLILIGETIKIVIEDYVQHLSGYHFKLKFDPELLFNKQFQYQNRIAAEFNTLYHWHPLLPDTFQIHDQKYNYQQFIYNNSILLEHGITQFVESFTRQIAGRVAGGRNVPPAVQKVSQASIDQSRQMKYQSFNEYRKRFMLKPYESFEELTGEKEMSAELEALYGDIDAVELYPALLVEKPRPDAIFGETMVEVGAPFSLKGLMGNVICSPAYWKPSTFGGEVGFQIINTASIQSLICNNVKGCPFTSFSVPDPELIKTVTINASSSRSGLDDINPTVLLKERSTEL
The assay is described as follows: COX II activity in vitro (PGE2 formed, ELISA, recombinant enzyme). The assay is classed as biochemical. The settings on record: arachidonic acid 10 μM, 10-20 min pre-incubation, read-out: HUMAN COX II ID50. (ELISA stands for enzyme-linked immunosorbent assay.)
Protocol: Evaluation of COX I and COX II activity in vitro
The COX II inhibition activity of the compounds of this invention illustrated in the Examples was determined by the following methods. a. Preparation of recombinant COX baculoviruses
Recombinant baculoviruses were isolated by transfecting 4 μg of baculovirus transfer vector DNA into SF9 insect cells (2x10e8) along with 200 ng of linearized baculovirus plasmid DNA by the calcium phosphate method.
Assay for COX I and COX II activity
Take `CS(=O)(=O)c1ccc(C2=C(c3cccc(F)c3F)CCC2)cc1` [Example 25, 1-[2-(2,3-Difluorophenyl)cyclopenten-1-yl]-4-(methylsulfonyl)benzene]: the IC50 was less than 0.1 µM. The same measure, in the same setting: next, `CCC1(CC)CC(c2ccc(F)cc2)=C(c2ccc(S(N)(=O)=O)cc2)C1` [Example 19, 4-[2-(4-Fluorophenyl)-4,4-diethylcyclopenten-1-yl]benzenesulfonamide]: 3.9 µM. On the same count and under the same terms, next, `CC1(C)CC(c2ccc(Cl)cc2)=C(c2ccc(S(N)(=O)=O)cc2)C1` [Example 15, 4-[2-(4-Chlorophenyl)-4,4-dimethylcyclopenten-1-yl]benzenesulfonamide]: less than 0.1 µM; `O=S(=O)(CF)c1ccc(C2=C(c3ccc(F)cc3)CCC2)cc1` [Example 37, 1-[2-(4-Fluorophenyl)cyclopenten-1-yl]-4-(fluoromethylsulfonyl)benzene]: less than 0.1 µM.

Another assay relates to COX II enzyme.
Assay: not given
The note with it: literature report; cited from earlier work.
Turning to `COc1ccc2cc(CC(=O)O)ccc2c1` [6-methoxy-2-napthylacetic acid], the “inhibition of the COX II enzyme” value is reported as “selectively inhibit the COX II enzyme”. Take `CS(=O)(=O)Nc1ccc([N+](=O)[O-])cc1OC1CCCCC1` [N-(2-cyclohexyloxy-4-nitrophenyl)methanesulfonamide]: the “inhibition of the COX II enzyme” value is “inhibits the COX II enzyme”.

In the next assay the test system is RAT PAW EDEMA. The assay can be described thus: Rat Carrageenan Foot Pad Edema Test. The note with it: po, 3 h, read-out: RAT PAW EDEMA % Inhibition. (Carrageenan injected into the paw causes an acute inflammation.)
For `CS(=O)(=O)c1ccc(C2=C(c3ccc4c(c3)OCO4)CCC2)cc1` [Example 35, 5-[2-[4-(Methylsulfonyl)phenyl]cyclopenten-1-yl]-1,3-benzodioxole], the inhibition in vivo at 30 mg/kg turned out to be 6%. Same read-out and setting: with `CC1(C)CC(c2ccc(F)cc2)=C(c2ccc(S(N)(=O)=O)cc2)C1` [Example 13, 4-[2-(4-Fluorophenyl)-4,4-dimethylcyclopenten-1-yl]benzenesulfonamide] the figure was 34%.

With `CS(=O)(=O)c1ccc(C2=C(c3ccc(Cl)cc3)CCC2)cc1` [Example 3, 1-[2-(4-Chlorophenyl)cyclopenten-1-yl]-4-(methylsulfonyl)benzene], the inhibition in vivo at 10 mg/kg came to 33%. Consider `CC1(C)CC(c2ccc(Cl)cc2)=C(c2ccc(S(C)(=O)=O)cc2)C1` [Example 14, 1-[2-(4-Chlorophenyl)-4,4-dimethylcyclopenten-1-yl]-4-(methylsulfonyl)benzene], for which the inhibition in vivo at 30 mg/kg stood at 31%. `NS(=O)(=O)c1ccc(C2=C(c3ccc(Cl)c(Cl)c3)CCC2)cc1` [Example 28, 4-[2-(3,4-Dichlorophenyl)cyclopenten-1-yl]benzenesulfonamide]: the inhibition in vivo at 10 mg/kg was determined as 10%. Same read-out and setting: with `CS(=O)(=O)c1ccc(C2=C(c3ccc(C(F)(F)F)cc3)CCC2)cc1` [Example 6, 1-[2-(4-Trifluoromethylphenyl)cyclopenten-1-yl]-4-(methylsulfonyl)benzene] the figure was 39%.

For `NS(=O)(=O)c1ccc(C2=C(c3ccc(F)c(Cl)c3)CCC2)cc1` [Example 34, 4-[2-(3-Chloro-4-fluorophenyl)cyclopenten-1-yl]benzenesulfonamide], the inhibition in vivo at 10 mg/kg is 37%.

On to `CS(=O)(=O)c1ccc(C2=C(c3ccc(F)cc3)CCC2)cc1` [Example 1, 1-[2-(4-Fluorophenyl)cyclopenten-1-yl]-4-(methylsulfonyl)benzene], for which the inhibition in vivo at 10 mg/kg came to 32%.

For `COc1ccc(C2=C(c3ccc(S(N)(=O)=O)cc3)CCC2)cc1F` [Example 30, 4-[2-(3-Fluoro-4-methoxyphenyl)cyclopenten-1-yl]benzenesulfonamide], the inhibition in vivo at 30 mg/kg stood at 47%. For the compound `COc1ccc(C2=C(c3ccc(S(C)(=O)=O)cc3)CCC2)cc1` [Example 23, 1-[2-(4-Methoxyphenyl)cyclopenten-1-yl]-4-(methylsulfonyl)benzene], the inhibition in vivo at 10 mg/kg is 22%. Turning to `CS(=O)(=O)c1ccc(C2=C(c3ccc(Cl)cc3Cl)CCC2)cc1` [Example 4, 1-[2-(2,4-Dichlorophenyl)cyclopenten-1-yl]-4-(methylsulfonyl)benzene], the inhibition in vivo at 10 mg/kg amounted to 25%. Regarding `Cc1ccc(C2=C(c3ccc(S(C)(=O)=O)cc3)CCC2)cc1` [Example 5, 1-[2-(4-Methylphenyl)cyclopenten-1-yl]-4-(methylsulfonyl)benzene], the inhibition in vivo at 10 mg/kg is 16%. Consider `CC1(C)CC(c2ccc(Cl)cc2)=C(c2ccc(S(N)(=O)=O)cc2)C1` [Example 15, 4-[2-(4-Chlorophenyl)-4,4-dimethylcyclopenten-1-yl]benzenesulfonamide], for which the inhibition in vivo at 30 mg/kg came out at 41%.

In the case of `Cc1cc(F)ccc1C1=C(c2ccc(S(C)(=O)=O)cc2)CCC1` [Example 2, 1-[2-(4-Fluoro-2-methylphenyl)cyclopenten-1-yl]-4-(methylsulfonyl)benzene], the inhibition in vivo at 10 mg/kg worked out at 39%. On the same count and under the same terms, next, `NS(=O)(=O)c1ccc(C2=C(c3ccc(F)cc3)CCC2)cc1` [Example 20, 4-[2-(4-Fluorophenyl)cyclopenten-1-yl]benzenesulfonamide]: 26%. In the case of `Cc1ccc(C2=C(c3ccc(S(C)(=O)=O)cc3)CCC2)cn1` [Example 36], the inhibition in vivo at 30 mg/kg is 33%. Regarding `CC1(C)CC(c2ccc(F)cc2)=C(c2ccc(S(C)(=O)=O)cc2)C1` [Example 12, 1-[2-(4-Fluorophenyl)-4,4-dimethylcyclopenten-1-yl]-4-(methylsulfonyl)benzene], the inhibition in vivo at 20 mg/kg was 45%. On to `COc1ccc(C2=C(c3ccc(S(N)(=O)=O)cc3)CCC2)cc1Cl` [Example 32, 4-[2-(3-Chloro-4-methoxyphenyl)cyclopenten-1-yl]benzenesulfonamide], for which the inhibition in vivo at 10 mg/kg worked out at 13%.

These data come from US5663180A, “Substituted cyclopentenes for the treatment of inflammation” (G.D. Searle & Co., priority 1994, dated 1997).
